≈ marks a conversion by molar mass, not a printed value. Entries after “also recorded” stand apart in the source; their conditions may differ. Read-outs that look alike come from different tables or passages of the source.
Experiments:
[1] = system: Acinetobacter Baumannii ATCC 19606; assay: MIC, agar dilution (BSAC guidelines); type: cell-based
Method: (§1) In example experiments miconazole nitrate, was dissolved in methanol and econazole nitrate and clotrimazole were dissolved in DMSO and methanol respectively. Other solvents that may be used include caster oil, pyridine, DMSO and 0.9% saline. For IV administration agents may be solubilised in polyethoxylated caster oil, or cyclodextrins such as sulfobutylether7-βcyclodextrin or hydroxypropyl-β-cyclodextrin and lactic acid. Minimum inhibitory concentrations (MICs) of a range of clinical and control bacterial organisms were measured according to BSAC (British Society for Antimicrobial Chemotherapy) guidelines, described briefly as follows;
(§2) Preparation of Agar Plates and Broths
(§3) Stock solutions of each agent were prepared using the formula:
(§4) Where P=μg of active compound per mg (μg/mg) • V=volume required (mL) • C=final concentration of solution (mg/L) • W=weight of agent (mg) to be dissolved in volume V (mL)
(§5) Stock solutions were prepared at concentrations of 1000 mg/L and 100 mg/L. The appropriate amounts of each stock solution were added to separate Petri dishes give the following final concentrations (after the addition of 20 mL molten agar): 128, 64, 32, 16, 8, 4, 2, 1, 0.5, 0.25, 0.12, 0.06, 0.03, 0.015 mg/L.
(§6) Volumes (20 mL) of cooled molten IST agar (oxoid) was added to each Petri dish and mixed by swirling.
(§7) After drying, the plates were stored at 4° C. and protected from light. Plates were used on the day of preparation.
(§8) The test organisms were grown overnight in 5 mL IST broth. Using a dilution in 0.9% saline of 1:500 for Gram-negative organisms and 1:100 for Gram-positive organisms, the appropriate agar plates were inoculated using a multipoint inoculator.
(§9) Plates were incubated at 37° C. in air for 18-20 hours.
(§10) The MIC is the minimum amount of an antibiotic at which there is no visible growth of bacteria. Tiny single colonies or faint hazes were not counted as growth.

[2] = system: Enterococcus faecalis (VRE) E8 VanA; assay: MIC, agar dilution (BSAC guidelines); type: cell-based; details: E. faecalis (VRE) E8 VanA
Method: as §1, §2, §3, §4, §5, §6, §7, §8, §9, §10

[3] = system: Enterococcus faecium (VRE) E15 VanA ATCC 4147; assay: MIC, agar dilution (BSAC guidelines); type: cell-based
Method: as §1, §2, §3, §4, §5, §6, §7, §8, §9, §10

[4] = system: Enterococcus faecium (VRE) E19 UAA/522 VanB; assay: MIC, agar dilution (BSAC guidelines); type: cell-based; details: E. faecium (VRE) E19 UAA/522 VanB
Method: as §1, §2, §3, §4, §5, §6, §7, §8, §9, §10

[5] = system: Enterococcus faecium (VRE) NCTC 7171; assay: MIC, agar dilution (BSAC guidelines); type: cell-based
Method: as §1, §2, §3, §4, §5, §6, §7, §8, §9, §10

[6] = system: Enterococcus faecium (VRE) VanR B145344C LFE; assay: MIC, agar dilution (BSAC guidelines); type: cell-based; details: E. faecium (VRE) VanR B145344C LFE
Method: as §1, §2, §3, §4, §5, §6, §7, §8, §9, §10

[7] = system: Enterococcus gallinarum (VRE) E1 NCTC 12359 VanC1; assay: MIC, agar dilution (BSAC guidelines); type: cell-based
Method: as §1, §2, §3, §4, §5, §6, §7, §8, §9, §10

[8] = system: Escherichia coli NCTC 10418; assay: MIC, agar dilution (BSAC guidelines); type: cell-based
Method: as §1, §2, §3, §4, §5, §6, §7, §8, §9, §10

[9] = system: Klebsiella pneumoniae ESBL 700603; assay: MIC, agar dilution (BSAC guidelines); type: cell-based
Method: as §1, §2, §3, §4, §5, §6, §7, §8, §9, §10

[10] = system: Pseudomonas aeruginosa NCTC 10662; assay: MIC, agar dilution (BSAC guidelines); type: cell-based
Method: as §1, §2, §3, §4, §5, §6, §7, §8, §9, §10

[11] = system: Staphylococcus epidermidis ATCC 1228; assay: MIC, agar dilution (BSAC guidelines); type: cell-based
Method: as §1, §2, §3, §4, §5, §6, §7, §8, §9, §10

[12] = system: VISA, strain USA/VISA 5827; assay: MIC, agar dilution (BSAC guidelines); type: cell-based; details: Staphylococcus aureus
Method: as §1, §2, §3, §4, §5, §6, §7, §8, §9, §10

[13] = system: VISA, strain USA/VISA 5836; assay: MIC, agar dilution (BSAC guidelines); type: cell-based; details: Staphylococcus aureus
Method: as §1, §2, §3, §4, §5, §6, §7, §8, §9, §10

[14] = system: VISA, strain VISA 3900 UK; assay: MIC, agar dilution (BSAC guidelines); type: cell-based; details: Staphylococcus aureus
Method: as §1, §2, §3, §4, §5, §6, §7, §8, §9, §10

Gram-negative organisms = assay: Growth inhibition, summary of MIC testing; type: cell-based; details: summary in words
Method: as §1, §5, §8, §9, §10

[15] = system: strains of Staphylococci and Enterococci with reduced susceptibility to vancomycin; assay: Growth inhibition, summary of MIC testing; type: cell-based; details: summary in words
Method: as §1, §5, §8, §9, §10

[16] = in vivo, cited from earlier work
[17] = replicate 1, read-out: Minimum inhibitory concentration (MIC)
[18] = replicate 2, read-out: Minimum inhibitory concentration (MIC)
[19] = replicate 3, read-out: Minimum inhibitory concentration (MIC)

## Clc1ccc(COC(Cn2ccnc2)c2ccc(Cl)cc2Cl)cc1 (stereo not shown) [Econazole]
[1]; ATCC19606, Acinetobacter Baumannii ATCC 19606, replicate 1, read-out: Minimum inhibitory concentration (MIC)
  MIC: > 10 µg/mL
[1]; ATCC19606, Acinetobacter Baumannii ATCC 19606, replicate 2, read-out: Minimum inhibitory concentration (MIC)
  MIC: > 6 µg/mL
[1]; ATCC19606, Acinetobacter Baumannii ATCC 19606, replicate 3, read-out: Minimum inhibitory concentration (MIC)
  MIC: > 6 µg/mL
[2]; [17]
  MIC: 7 µg/mL (≈ 18.3 µM)
[2]; [18]
  MIC: > 6 µg/mL
[2]; [19]
  MIC: > 6 µg/mL
[3]; E. faecium (VRE) E15 VanA ATCC 4147, replicate 1, read-out: Minimum inhibitory concentration (MIC)
  MIC: 3 µg/mL (≈ 7.86 µM)
[3]; E. faecium (VRE) E15 VanA ATCC 4147, replicate 2, read-out: Minimum inhibitory concentration (MIC)
  MIC: 4.5 µg/mL (≈ 11.8 µM)
[3]; E. faecium (VRE) E15 VanA ATCC 4147, replicate 3, read-out: Minimum inhibitory concentration (MIC)
  MIC: 3 µg/mL (≈ 7.86 µM)
[4]; [17]
  MIC: 2 µg/mL (≈ 5.24 µM)
[4]; [18]
  MIC: 4.5 µg/mL (≈ 11.8 µM)
[4]; [19]
  MIC: 2 µg/mL (≈ 5.24 µM)
[5]; E. faecium (VRE) NCTC 7171, replicate 1, read-out: Minimum inhibitory concentration (MIC)
  MIC: 4 µg/mL (≈ 10.5 µM)
[5]; E. faecium (VRE) NCTC 7171, replicate 2, read-out: Minimum inhibitory concentration (MIC)
  MIC: > 6 µg/mL
[5]; E. faecium (VRE) NCTC 7171, replicate 3, read-out: Minimum inhibitory concentration (MIC)
  MIC: > 6 µg/mL
[6]; [17]
  MIC: 3.5 µg/mL (≈ 9.17 µM)
[6]; [18]
  MIC: 5 µg/mL (≈ 13.1 µM)
[6]; [19]
  MIC: 2.5 µg/mL (≈ 6.55 µM)
[7]; E. gallinarum (VRE) E1 NCTC 12359 VanC1, replicate 1, read-out: Minimum inhibitory concentration (MIC)
  MIC: 3 µg/mL (≈ 7.86 µM)
[7]; E. gallinarum (VRE) E1 NCTC 12359 VanC1, replicate 2, read-out: Minimum inhibitory concentration (MIC)
  MIC: 5.5 µg/mL (≈ 14.4 µM)
[7]; E. gallinarum (VRE) E1 NCTC 12359 VanC1, replicate 3, read-out: Minimum inhibitory concentration (MIC)
  MIC: 3 µg/mL (≈ 7.86 µM)
[8]; NCTC10418, E. coli NCTC 10418, replicate 1, read-out: Minimum inhibitory concentration (MIC)
  MIC: > 10 µg/mL
[8]; NCTC10418, E. coli NCTC 10418, replicate 2, read-out: Minimum inhibitory concentration (MIC)
  MIC: > 6 µg/mL
[8]; NCTC10418, E. coli NCTC 10418, replicate 3, read-out: Minimum inhibitory concentration (MIC)
  MIC: > 6 µg/mL
[9]; ESBL700603, K. pneumoniae ESBL 700603, replicate 1, read-out: Minimum inhibitory concentration (MIC)
  MIC: > 10 µg/mL
[9]; ESBL700603, K. pneumoniae ESBL 700603, replicate 2, read-out: Minimum inhibitory concentration (MIC)
  MIC: > 6 µg/mL
[9]; ESBL700603, K. pneumoniae ESBL 700603, replicate 3, read-out: Minimum inhibitory concentration (MIC)
  MIC: > 6 µg/mL
[10]; NCTC10662, P. aeruginosa NCTC 10662, replicate 1, read-out: Minimum inhibitory concentration (MIC)
  MIC: > 10 µg/mL
[10]; NCTC10662, P. aeruginosa NCTC 10662, replicate 2, read-out: Minimum inhibitory concentration (MIC)
  MIC: > 6 µg/mL
[10]; NCTC10662, P. aeruginosa NCTC 10662, replicate 3, read-out: Minimum inhibitory concentration (MIC)
  MIC: > 6 µg/mL
[11]; ATCC1228, S. epidermidis ATCC 1228, replicate 1, read-out: Minimum inhibitory concentration (MIC)
  MIC: 4 µg/mL (≈ 10.5 µM)
[11]; ATCC1228, S. epidermidis ATCC 1228, replicate 2, read-out: Minimum inhibitory concentration (MIC)
  MIC: 2 µg/mL (≈ 5.24 µM)
[11]; ATCC1228, S. epidermidis ATCC 1228, replicate 3, read-out: Minimum inhibitory concentration (MIC)
  MIC: 2.5 µg/mL (≈ 6.55 µM)
[12]; [17]
  MIC: 1.5 µg/mL (≈ 3.93 µM)
[12]; [18]
  MIC: 2 µg/mL (≈ 5.24 µM)
[12]; [19]
  MIC: 2.5 µg/mL (≈ 6.55 µM)
[13]; [17]
  MIC: 2 µg/mL (≈ 5.24 µM)
[13]; [18]
  MIC: 4.5 µg/mL (≈ 11.8 µM)
[13]; [19]
  MIC: 4 µg/mL (≈ 10.5 µM)
[14]; [17]
  MIC: 1.5 µg/mL (≈ 3.93 µM)
[14]; [18]
  MIC: 2 µg/mL (≈ 5.24 µM)
[14]; [19]
  MIC: 2 µg/mL (≈ 5.24 µM)
Gram-negative organisms
  activity against Gram-negative organisms: no significant activity
[15]
  activity against strains of Staphylococci and Enterococci with reduced susceptibility to vancomycin: good activity; also recorded: capable of inhibiting the growth
[16]; po
  tolerability of single oral dose: tolerated
[16]
  number of metabolites: more than 20
